Consider six molecules from US5688771A, “Lipophilic oligopeptides with immunomodulating activity” (priority 1993, dated 1997).

“Also recorded” adds a separate entry of the source.

Series [1] deals with antibody producing cells (SRBC antigen). Description: Plaque forming assay (PFC) in spleen cells of SRBC-immunized mice. The format is in vivo. Particulars: for Plaque Assay, PFC relative to control (100%) / Plaque Assay, PFC per 10^6 spleen cells: mice, 10 mg/kg i.p.; for Plaque Assay, PFC per 10^6 spleen cells: five days after injections; for Immunomodulating activity (in words): plaque-forming assay, Table 1.

In series [2] the test system is IgM antibody against SRBC antigen. Description: Enzyme immunoassay of IgM antibody in blood of SRBC-immunized mice. The format is in vivo. The protocol:
Outbred CD1 mice were immunized with 0.1% volume for volume sheep red blood cell antigen suspended in saline. The mice were injected intraperitoneally with 0.5 ml, suspension of approximately 2×10^7 cells.
The mice were injected shortly thereafter with a suspension of an immunomodulator of the invention. The immunomodulator dose was a 0.23 ml of a 1 mg/ml suspension in phosphate buffered saline. The injected dose was 10 mg/kg. The second injection was also intraperitoneal.
The mice were killed five days after injections. Blood samples were taken for analysis of immunoglobulin. The determination was made by enzyme immunoassay using an anti μ-horseradish peroxidase conjugate. The spleen was removed, transferred to a petri dish containing 2 ml of Hank's balanced salt solution and 10 mMolar Hepes buffer (HBSS-HEPES). The spleen was gently crushed by the use of forceps, and the cell suspension was filtered through cotton gauze to eliminate cellular debris. The filtered suspension was brought to volume (5 ml) by the addition of HBSS-HEPES, the cells counted, and the suspension diluted to a final concentration of 5×10^6 cells/ml.

The subject of series [3] is Total T and B cells in splenocytes. The series is described as follows: Splenic T and B cell enumeration by FACS. The format is in vivo, C57BL/6 mice. The following applies: for % Cells/Spleen ± SD, B Cells / % Cells/Spleen ± SD, T Cells: 50 mg/kg/day i.p. every other day for 4 injections, n = 5; for % Cells/Spleen ± SD, B Cells: anti-Ly5; for % Cells/Spleen ± SD, T Cells: anti-Thy 1.2; for Effect on B cell counts (in words) / Effect on T cell counts (in words): 50 mg/kg, splenocytes, Hydrochloride. The text has this:
Splenic cells were enumerated with the following assay. Dispersed splenocytes were reacted with fluorescein isothiocyanate-labelled murine monoclonal antibody anti-Ly5 for B cell enumeration and phycoerythrin-labelled monoclonal antibody anti-Thy 1.2 for T cell counts. The labelled cells were then enumerated with a fluorescence-activated cell sorter (FACS) (EPICS-C, Coulter Corp., Hialeah, Fla.).
On the technique in general: In flow cytometry, cells or beads pass a laser one at a time.

The next series concerns YAC-1 tumor cells. The series is described as follows: Natural killer cell activity, 4 hr chromium release assay. Particulars: for % Chromium Release ± SD, Effector:Target Ratio 25:1 / % Chromium Release ± SD, Effector:Target Ratio 50:1: 50 mg/kg/day i.p. every other day for 4 injections, splenocytes 24 hr after final treatment, n = 5.
In series [4] the test system is Macrophage function (IL-1 activity in splenocytes). Description: Macrophage function, IL-1 activity in splenocytes by [3H]thymidine uptake in PHA-stimulated thymocytes. Particulars: for Mean CPM of Treated Thymocytes ± SD: 50 mg/kg/day i.p. every other day for 4 injections, splenocytes 24 hr after final treatment, n = 5; for Effect on macrophage function (in words): 50 mg/kg, splenocytes 24 hours after final treatment, Hydrochloride.
Protocol: (§1) Mice were administered a 50 mg/kg dose of the immunomodulators of the invention and were subsequently sacrificed. The spleens were harvested and splenocytes isolated. Immunologic assays were conducted on those splenocytes that were taken 24 hours after final treatment. These cells were subjected to tests to determine macrophage and natural killer (NK) cell function.
Ribavarin (1-β-D-ribofuranosyl-1,2,4-triazole-carboxamide) was used in each subsequent experiment as a control.
(§2) Animals were treated with a 50 mg/kg/day dosage of one of the tested compound and were killed 24 hr after the final treatment and their spleens removed. […] Red blood cells were removed by haemolytic lysis.
Macrophage function was assessed by an interleukin-1 (IL-1) assay that utilizes responsiveness of mouse thymocytes to phytohemagglutin (PHA) which is dependent on IL-1 for its reactivity.
The cells were incubated 72 hr at 37° C. During the last 4 hr of the incubation, the cells were pulsed with [^3 H] thymidine (1 μCi/well). The cells were then harvested and [H^3 ] thymidine incorporation was determined using a direct counter.

The test system of series [5] is murinecytomegalovirus (MCMV) (Smith strain). Description: Mortality in MCMV-infected mice. The format is in vivo, Swiss Webster female mice. Particulars: MCMV-infected mice.
The test system is the same in series [6]. Description: MCMV titers in tissues. The format is in vivo, Swiss Webster female mice. Particulars: 25 mg/kg.
Series [7] is described as follows: Toxicity controls: mortality and weight gain in uninfected mice. The following applies: mouse, in vivo, 25 mg/kg. The format is in vivo. The protocol: Groups of 5 uninfected mice were treated the same way and at the same times as described above. These animal were checked daily for survival. Their weigths were taken before the first treatment and 24 hours after the last treatment to determine drug effect on weight gain.

Where [8] appears, read: 25 mg/kg i.p. once daily for 5 days from 24 hours after virus, 21 days.

Protocol for YAC-1 tumor cells: as §1
Three week-old C57 BL/6 mice were procured and quarantined for 24 to 48 hours prior to treatment. The five oligopeptides described in tables 2, 3 and 4 were admixed with a 0.4% water solution of carboxymethylcellulose. The solutions were stored at 4° C. until use. Ribavarin (1-β-D-ribofuranosyl-1,2,4-triazole-carboxamide) was used in each subsequent experiment as a control.
as §2
Natural killer (NK) activity of murine cells was determined by testing splenic cells for their ability to lyse YAC-1 tumor cells in a conventional 4 hr chromium release assay as an indicator of NK was expressed as: % chromium release=(experimental counts per minute (cpm)-background cpm)/(maximum cpm-background cpm)

For `CCCCCCCCCCCCCCCCCCN[C@H](C(=O)N[C@H](CCC(N)=O)C(=O)O)C(C)C.Cl` [BCH 1317, Octadecyl L-Valyl D-Glutamine Hydrochloride], in series [1] (Experiment 9), the “Plaque Assay, PFC relative to control (100%)” value is listed as 149% and the “Plaque Assay, PFC per 10^6 spleen cells” value turned out to be 750 ± 191 PFC per 10^6 spleen cells. Besides, in series [2] (Experiment 9, 10 mg/kg i.p.), the “Enzyme Immunoassay, IgM antibody relative to control (100%)” value is listed as 189%.
With `CCCCCCCCCCCCCCCCCCOC(=O)CC[C@@H](NC(=O)[C@H](C)N)C(=O)O.Cl` [BCH-524, γ-Octadecyl L-Alanyl D-Glutamate Hydrochloride], in series [1] (Experiment 5), the “Plaque Assay, PFC relative to control (100%)” value was determined as 58% and the “Plaque Assay, PFC per 10^6 spleen cells” value is listed as 245 ± 90 PFC per 10^6 spleen cells. Besides, in series [1], the “Immunomodulating activity (in words)” value was “immunosuppressors”. Moreover, the “Enzyme Immunoassay, IgM antibody relative to control (100%)” value in series [2] (Experiment 5, 10 mg/kg i.p.) was 80%. Besides, in series [3], the “% Cells/Spleen ± SD, B Cells” value was determined as 33 ± 10.2%; the “% Cells/Spleen ± SD, T Cells” value worked out at 35 ± 9.6%; the “Effect on B cell counts (in words)” value was “suppressive; also recorded: suppressed”; the “Effect on T cell counts (in words)” value is “suppressive; also recorded: suppressed”. In addition, in the series with YAC-1 tumor cells, the “% Chromium Release ± SD, Effector:Target Ratio 25:1” value turned out to be 9.8 ± 3.6% and the “% Chromium Release ± SD, Effector:Target Ratio 50:1” value is on record as 14.3 ± 1.9%. Further, in the series on YAC-1 tumor cells (50 mg/kg, splenocytes 24 hours after final treatment, Hydrochloride), the “Effect on natural killer (NK) cell activity (in words)” value is “marginally suppressive; also recorded: marginal natural killer cell suppression”. Further, in series [4], the “Mean CPM of Treated Thymocytes ± SD” value is 5491 ± 1269 CPM and the “Effect on macrophage function (in words)” value is given as “somewhat stimulatory; also recorded: macrophage stimulation”.
Regarding `CCCCCCCCCCCCCCCCCCOC(=O)[C@@H](CCC(=O)O)NC(=O)[C@H](C)N.Cl` [BCH-526, α-Octadecyl L-Alanyl D-Glutamate Hydrochloride], in series [1] (Experiment 5), the “Plaque Assay, PFC relative to control (100%)” value is recorded as 77% and the “Plaque Assay, PFC per 10^6 spleen cells” value was found to be 325 ± 300 PFC per 10^6 spleen cells. Further, the “Immunomodulating activity (in words)” value in series [1] is “immunosuppressors”. Moreover, the “Enzyme Immunoassay, IgM antibody relative to control (100%)” value in series [2] (Experiment 5, 10 mg/kg i.p.) was 82%. In addition, in series [3], the “% Cells/Spleen ± SD, B Cells” value worked out at 43 ± 1.4%; the “% Cells/Spleen ± SD, T Cells” value was 40 ± 2.4%; the “Effect on B cell counts (in words)” value was “increase % B cells; also recorded: increased B cell counts”; the “Effect on T cell counts (in words)” value is given as “suppressing T cells; also recorded: suppressed T cell counts”. In the series on YAC-1 tumor cells, the “% Chromium Release ± SD, Effector:Target Ratio 25:1” value came out at 12.8 ± 2.1% and the “% Chromium Release ± SD, Effector:Target Ratio 50:1” value is reported as 17.2 ± 3.3%. Further, in series [4], the “Mean CPM of Treated Thymocytes ± SD” value stood at 3413 ± 206 CPM and the “Effect on macrophage function (in words)” value was “moderately inhibitory; also recorded: moderate macrophage suppression”.
`CCCCCCCCCCCCCCCCCCNC(=O)CC[C@@H](NC(=O)[C@H](C)N)C(N)=O.Cl` [BCH-1316, L-Alanyl D-Isoglutamyl Octadecylamine Hydrochloride]: in series [1] (Experiment 8), the “Plaque Assay, PFC relative to control (100%)” value is recorded as 153% and the “Plaque Assay, PFC per 10^6 spleen cells” value worked out at 759 ± 252 PFC per 10^6 spleen cells. In addition, in series [1], the “Immunomodulating activity (in words)” value is reported as “immunostimulants”. Further, the “Enzyme Immunoassay, IgM antibody relative to control (100%)” value in series [2] (Experiment 8, 10 mg/kg i.p.) is given as 186%.
On to `Nc1nc(O)c2ncn(COC(CO)CO)c2n1` [Ganciclovir, reference compound], for which, in series [5] (setting [8]), the “Survivors (%)” value was determined as 100% and the Survivors/total is given as 10/10. In addition, the “Mean day to death” value in series [5] (25 mg/kg i.p. once daily for 5 days, of mice that died on or before day 21) is > 21 days. Besides, in series [6] (Day 3), the “Virus titer in Liver” value is 2.6±0.2 Log10 CCID50/qram, the “Virus titer in Lung” value was < 2.5±0.0 Log10 CCID50/qram, the “Virus titer in salivary gland” value is given as 3.1±0.6 Log10 CCID50/qram and the “Virus titer in spleen” value is reported as 5.7±0.3 Log10 CCID50/qram. Moreover, in series [6] (Day 6), the “Virus titer in Liver” value turned out to be 3.3±0.8 Log10 CCID50/qram, the “Virus titer in Lung” value was determined as 3.5±0.6 Log10 CCID50/qram, the “Virus titer in salivary gland” value is recorded as 3.3±0.8 Log10 CCID50/qram and the “Virus titer in spleen” value is 3.6±0.9 Log10 CCID50/qram. For the same molecule, in series [7], the “Survivors (%)” value is 100% and the Survivors/total is reported as 5/5.
“Octadecyl L-Alanyl D-Isoglutamyl γ-Glycine Hydrochloride [BCH-1315]”: in series [1] (Experiment 8), the “Plaque Assay, PFC relative to control (100%)” value turned out to be 204% and the “Plaque Assay, PFC per 10^6 spleen cells” value is on record as 1012 ± 207 PFC per 10^6 spleen cells. For the same molecule, the “Immunomodulating activity (in words)” value in series [1] is “immunostimulants”. The “Enzyme Immunoassay, IgM antibody relative to control (100%)” value in series [2] (Experiment 8, 10 mg/kg i.p.) is on record as 202%.
